According to patent publication US8828942B2, “Means for treating synucleinopathies” (Affiris AG, priority 2009, dated 2014):
“Also recorded” adds a separate entry of the source.

What was measured:
[1] = system: monoclonal antibody 12-9-9; assay: In vitro binding assay (ELISA) with monoclonal antibody 12-9-9; set-up: species or system mouse; key to Binding: 0: no binding to 12-9-9 detectable in ELISA; 1: weak binding: binding of mimotope weaker compared to the minimal original sequence p5436; 2: strong binding: binding of mimotope similar to the minimal original sequence p5436; conditions: for Binding: binding capacity to 12-9-9 in ELISA, peptide-BSA coated (1 μM), compared with p5436; for detection/binding by monoclonal antibody 12-9-9 in ELISA: result in words
Text: A monoclonal antibody derived from the fusion “AFFiRiS 6”: Balb/c mice (Charles River) were immunized with original alpha-synuclein epitope LGKNEEGAPQ-C (SEQ ID NO:3) coupled to BTG (bovine thyroglobuline) and CFA (complete Freund's adjuvant; first injection) as well as IFA (incomplete Freund's adjuvant; 3 booster injections) as adjuvant. LGKNEEGAPQ-peptide-specific (SEQ ID NO: 203) antibody-producing hybridomas are detected by ELISA (LGKNEEGAPQC-peptide-coated (SEQ ID NO: 3)ELISA plates). Human alpha-synuclein (recombinant protein, p4446) is used as positive control peptide: hybridomas recognizing the recombinant protein immobilized on ELISA plates are included because they are binding both peptide and full length alpha-synuclein specifically. […] The Hybridoma clone (12-9-9; IgG1, kappa) was analysed for specific detection of the natural human alpha-synuclein epitope LGKNEEGAPQ. (SEQ ID NO: 203). 12-9-9 recognizes the injected epitope as well as full length alpha-synuclein protein (recombinant protein; obtained from rPeptide, Bogart, Ga., USA) in ELISA (see FIG. 2). […] Thus the minimal required epitope for binding has been defined as KNEEGAP (SEQ ID NO: 139).
Peptides derived from Phage Display as well as N-terminally truncated variants thereof were coupled to BSA and bound to ELISA plates (1 μM) and subsequently incubated with the monoclonal antibody that was used for the screening procedure to analyse binding capacity of identified peptides (see FIG. 4).

[2] = system: monoclonal antibody 12-9-9; assay: In vitro inhibition assay (ELISA); type: binding, mouse; set-up: key: 0: no competition of 12-9-9 detectable in ELISA; 1: weak competition: competition of mimotope weaker compared to the minimal original sequence p5436; 2: strong competition: competition of mimotope similar to the minimal original sequence p5436; conditions: competition capacity in ELISA, peptide 400 μg/ml to 3 μg/ml, plates coated with p5436 and p4446
Procedure: Different amounts of peptides (concentrations ranging from 400 μg/ml to 3 μg/ml (serial dilutions), derived from Phage Display were incubated with the monoclonal antibody that was used for the screening procedure. Peptides diminishing subsequent binding of the antibody to the original human alpha-synuclein epitope (p5436) and the human alpha-synuclein protein (p4446) coated on ELISA plates were considered as inhibiting in this assay.

[3] = system: recombinant human alpha-synuclein protein; assay: In vivo testing of mimotopes: serum titer against alpha-synuclein (ELISA); conditions: mice immunized with peptide-KLH, alum, OD halfmax
Procedure: (§1) Inhibiting as well as non-inhibiting peptides were coupled to KLH and injected into mice (wildtype C57/B16 or BalbC mice; subcutaneous injection into the flank) together with an appropriate adjuvant (aluminium hydroxide). Animals were vaccinated 3 times in biweekly intervals and sera were taken biweekly as well. Titers to injected peptides as well as to an irrelevant peptide were determined with every serum. Titers against the recombinant human alpha-synuclein protein and recombinant human beta-synuclein were determined starting with Serum 2 respectively. In general sera were analysed by reaction against peptides coupled to Bovine Serum Albumin (BSA) and recombinant full length proteins which were immobilised on ELISA plates. Titers were determined using anti mouse IgG specific antibodies. For examples of immunogenicity against injected peptide and alpha-synuclein see Table 5 and Table 6.
(§2) Female C57/B16 mice or BalbC, 5-6 mice per group, were subcutaneously immunized with 30 μg peptide coupled to KLH. Control groups were injected with PBS or the original epitope. As adjuvant alum was used. The peptides administered were all able to bind to monoclonal antibodies specifically binding aa100-109 of human alpha-synuclein although some of the peptides did inhibit the binding of the original epitope to its parental antibody in vitro only weakly (in an in vitro inhibition assay). The in vitro ELISA assay to determine the antibody titer was performed with sera of single mice (see Tab. 5) after each vaccination in a two week interval. The wells of the ELISA plate were coated with mimotope-BSA conjugates. The positive control was performed by reaction of the parental antibody with the respective mimotope-BSA conjugate. The detection was performed with anti-mouse IgG. Additionally, recombinant proteins were immobilised on ELISA plates and sera reacted accordingly. For all mimotopes tested in C57/B16 mice or BalbC, antibodies reacting to the individual injected peptide could be detected after repeated vaccination. Although not all mice induced higher titer against alpha-synuclein (see tab. 5 for examples).

[4] = In vivo testing of mimotopes: serum titer against injected peptide (ELISA); conditions: mice, 30 μg peptide coupled to KLH, alum, s.c.; titer by ELISA as OD halfmax
Procedure: as §1, §2

Substance	Binding [1]	also measured
LGKNEEGAPQC [p4453, reference compound]	2	detection/binding by monoclonal antibody 12-9-9 in ELISA [1]: detected; also recorded: retained full binding capacities
APSWKGEC [p5556, mimotope]	2	Competition [2]: 1; class of immunogenicity: a Syn [3]: 0 (peptides inducing no immune response or a very low immune response with OD halfmax around 50 or lower.)
ANDEGAPC [p5591, mimotope]	2	–
HSDEGAPC [p5608, mimotope]	1	–
RQDDGAPC [p5610, mimotope]	2	–
RQEDGAPC [p5603, mimotope]	2	Competition [2]: 1
KNEDGAPC [p5446, mimotope]	2	Competition [2]: 1
LGKNEEGC [p5404, reference compound]	–	detection/binding by monoclonal antibody 12-9-9 in ELISA [1]: lost binding
RSEDGAPC [p5607, mimotope]	2	–
LGKNEEGAC [p5403, reference compound]	–	detection/binding by monoclonal antibody 12-9-9 in ELISA [1]: lost binding
QASFAMEC [p5547, mimotope]	1	–
RQEEGAPC [p5589, mimotope]	2	–
KNEAGAPC [p5440, mimotope]	–	detection/binding by monoclonal antibody 12-9-9 in ELISA [1]: not detected
TPSWAGEC [p5558, mimotope]	2	–
GKNEEGAPQC [p5397, reference compound]	2	Competition [2]: 2; detection/binding by monoclonal antibody 12-9-9 in ELISA [1]: retained full binding capacities
RNAEGAPC [p5597, mimotope]	2	Competition [2]: 1; class of immunogenicity: a Syn [3]: 1 (peptides inducing an immune response with OD halfmax between 1000 and 51.)
KSEDGAPC [p5601, mimotope]	2	–
KNEEGAPQC [p5398, reference compound]	2	Competition [2]: 2; detection/binding by monoclonal antibody 12-9-9 in ELISA [1]: retained full binding capacities
KQEEGAPC [p5447, mimotope]	2	–
HSEEGAPC [p5593, mimotope]	1	–

Substance	Binding [1]	also measured
KSEEGAPC [p5448, mimotope]	2	Competition [2]: 1
HNAEGAPC [p5598, mimotope]	1	–
RNEDGAPC [p5588, mimotope]	2	Competition [2]: 1
ASEEGAPC [p5594, mimotope]	1	–
DPSFALEC [p5465, mimotope]	2	class of immunogenicity: a Syn [3]: 0 (peptides inducing no immune response or a very low immune response with OD halfmax around 50 or lower.)
KAEEGAPC [p5438, mimotope]	1	–
SPSFKQEC [p5463, mimotope]	2	class of immunogenicity: a Syn [3]: 0 (peptides inducing no immune response or a very low immune response with OD halfmax around 50 or lower.)
LGKNEC [p5406, reference compound]	–	detection/binding by monoclonal antibody 12-9-9 in ELISA [1]: lost binding
QASSKLDC [p5549, mimotope]	1	–
EEGAPQC [p5400, reference compound]	–	detection/binding by monoclonal antibody 12-9-9 in ELISA [1]: lost binding
EGAPQC [p5401, reference compound]	–	detection/binding by monoclonal antibody 12-9-9 in ELISA [1]: lost binding
MGKGEEGYPQC [p4454, reference compound]	2	Titer in animals OD halfmax injected pep. [4]: 17000; class of immunogenicity: a Syn [3]: 1 (peptides inducing an immune response with OD halfmax between 1000 and 51.)
HSAEGAPC [p5604, mimotope]	1	–
TPSAKGEC [p5557, mimotope]	–	Competition [2]: 1
RSAEGAPC [p5605, mimotope]	2	–
RSEEGAPC [p5590, mimotope]	2	Competition [2]: 1; class of immunogenicity: a Syn [3]: 1 (peptides inducing an immune response with OD halfmax between 1000 and 51.)
Alpha-synuclein [p4446]	2	detection/binding by monoclonal antibody 12-9-9 in ELISA [1]: detected; also recorded: retained full binding capacities; detection/binding by monoclonal antibody 12-9-9 in ELISA ([1]; listed as Alpha-Synuclein): detected similarly; detection/binding by monoclonal antibody 12-9-9 in ELISA ([1]; listed as alpha-synuclein protein): recognizes
KPSFKNEC [p5461, mimotope]	2	class of immunogenicity: a Syn [3]: 0 (peptides inducing no immune response or a very low immune response with OD halfmax around 50 or lower.)
RQDEGAPC [p5602, mimotope]	2	Competition [2]: 1
QPSFAMEC [p5462, mimotope]	2	class of immunogenicity: a Syn [3]: 0 (peptides inducing no immune response or a very low immune response with OD halfmax around 50 or lower.)

Substance	Binding [1]	also measured
KSDEGAPC [p5600, mimotope]	2	Competition [2]: 1; class of immunogenicity: a Syn [3]: 1 (peptides inducing an immune response with OD halfmax between 1000 and 51.)
QPSSKLDC [p5468, mimotope]	2	class of immunogenicity: a Syn [3]: 0 (peptides inducing no immune response or a very low immune response with OD halfmax around 50 or lower.)
LPSFRLEC [p5466, mimotope]	1	class of immunogenicity: a Syn [3]: 0 (peptides inducing no immune response or a very low immune response with OD halfmax around 50 or lower.)
KNDDGAPC [p5449, mimotope]	2	Competition [2]: 1
LGKNEEC [p5405, reference compound]	–	detection/binding by monoclonal antibody 12-9-9 in ELISA [1]: lost binding
HNEEGAPC [p5444, mimotope]	2	detection/binding by monoclonal antibody 12-9-9 in ELISA [1]: detected much weaker than the human epitope
RNDEGAPC [p5587, mimotope]	2	Competition [2]: 2; class of immunogenicity: a Syn [3]: 1 (peptides inducing an immune response with OD halfmax between 1000 and 51.)
CTPSWKGE [p5560, mimotope]	2	–
CKNEEGAP [p5435, reference compound]	2	Competition [2]: 1
Beta-Synuclein [p4447]	–	detection/binding by monoclonal antibody 12-9-9 in ELISA [1]: not detected; detection/binding by monoclonal antibody 12-9-9 in ELISA ([1]; listed as beta-synuclein protein): does not detect
NEEGAPQC [p5399, reference compound]	–	detection/binding by monoclonal antibody 12-9-9 in ELISA [1]: lost binding
ANEEGAPC [p5437, mimotope]	2	–
TPSWKGEC [p5464, mimotope]	2	Competition [2]: 1; class of immunogenicity: a Syn [3]: 0 (peptides inducing no immune response or a very low immune response with OD halfmax around 50 or lower.)
RSDEGAPC [p5606, mimotope]	2	–
HNDEGAPC [p5596, mimotope]	2	–
TASWKGEC [p5548, mimotope]	2	Competition [2]: 1
KSAEGAPC [p5599, mimotope]	2	–
TPAWKGEC [p5551, mimotope]	1	–
